In US12371410B2, “Isoxazoline compounds and use thereof” (METISA BIOTECHNOLOGY CO., LTD, priority 2019, dated 2025):

Legend:
Type in all cases: in vivo
[1] = test system: Leucania separata; assay: Insecticidal activity against Leucania separata, Airbrush spraying of corn leaf segments; conditions: Mythimna separata, foliar, 72 h; dose 0.05 mg/L, three days after administration, 3rd instar larvae; read-out: lethality rate to Leucania separata
Procedure: (§1) The compound to be determined was dissolved in a mixed solvent of acetone/methanol (1:1), followed by dilution with water containing 0.1% (wt) Tween 80 to a desired concentration.
(§2) The activities of the respective compounds against Leucania separata, Plutella xylostella, and Chilo suppressalis were determined by Airbrush spraying method.
(§3) The determination method was as follows: Corn leaves were cut into 2 cm long segments; the pressure of Airbrush spraying was 10 psi (about 0.7 kg/cm^2); both sides of each leaf segment were sprayed with 0.5 mL of the compound solution to be tested. After drying in the shade, ten 3nd instar larvae were inoculated for each treatment, and each treatment was replicated 3 times. After treatment, they were cultured in an observation room at a temperature of 25° C. and a relative humidity of 60-70%, and the number of surviving insects was examined and the mortality was calculated three days after administration.

[2] = test system: Tetranychus cinnabarinus; assay: Acaricidal activity against Tetranychus cinnabarinus in greenhouse, bean seedling spraying; conditions: solution concentration 5 mg/L, adult mites, after 72 hours, read-out: lethality rate to Tetranychus cinnabarinus
Procedure: A bean seedling with two true leaves was taken for inoculating 30-40 adult mites of Tetranychus cinnabarinus. After examining the cardinal number, the whole seedling was treated by spraying with a hand-held sprayer, each treatment being replicated 3 times, and then placed in a standard observation room. The number of surviving mites was examined after 72 hours, and the mortality was calculated.

[3] = test system: Chilo suppressalis; assay: Insecticidal activity against Chilo suppressalis, spraying of rice seedlings; conditions: 72 h; for mortality at 0.25 µg/mL: 0.25 mg/L, read-out: Mortality (%, 3 days after administration) 0.25 mg/L; for mortality at 0.25 µg/mL / mortality at 0.5 µg/mL / mortality at 1 µg/mL / mortality at 5 µg/mL: parallel comparative test; for mortality at 0.5 µg/mL: 0.5 mg/L, read-out: Mortality (%, 3 days after administration) 0.5 mg/L; for mortality at 1 µg/mL: 1 mg/L, read-out: Mortality (%, 3 days after administration) 1 mg/L; for mortality at 5 µg/mL: 5 mg/L, read-out: Mortality (%, 3 days after administration) 5 mg/L; for pest or weed control at 1 µg/mL: dose 1 mg/L; for pest or weed control at 1 µg/mL / pest or weed control at 0.5 µg/mL: 3 days after administration, 3rd instar larvae, read-out: lethality rate to Chilo suppressalis; for pest or weed control at 0.5 µg/mL: dose 0.5 mg/L
Procedure: as §1, §2
The determination method was as follows: 1) Preparation of rice seedlings: rice plants were cultivated in a plastic cup with a diameter of 4.5 cm and a height of 4 cm in a thermostatic chamber (temperature 26-28° C., relative humidity 60-80%, illumination 16 hL: 8 hD), and when the rice plants were developed to have 4-5 leaves, strong seedlings with identical growth vigour were selected for chemical treatment, and each treatment was replicated 3 times. 2) Preparation of insects to be tested: Chilo suppressalis, 3rd instar larvae, continuous lab rearing. 3) Inoculation of insects by spraying rice plant stems: The whole rice seedlings were sprayed evenly by using the spraying method, with 15 mL of the compound solution for each treatment. Firstly, the blank control was treated, and then the above procedure was replicated according to the order of test concentration from low to high. After rice seedlings were spray-treated, they were placed in the shade to dry, and the stems about 5 cm from the stem bases were cut off to feed the insects to be tested. Glass culture dishes with a diameter of 90 mm were prepared; each dish was padded with a filter paper at the bottom and added with water to keep moisture; about 5 rice stems were put into each dish and inoculated with 10 larvae, and each culture dish was then sealed with a non-woven and cultured in a thermostatic chamber. The number of residual live insects was examined 3 days after administration.

[4] = test system: Plutella xylostella; assay: Insecticidal activity against Plutella xylostella, Airbrush spraying of cabbage leaf discs; conditions: foliar, 72 h; for pest or weed control at 0.313 µg/mL: dose 0.313 mg/L; for pest or weed control at 0.313 µg/mL / pest or weed control at 0.156 µg/mL: three days after administration, 3rd instar larvae, read-out: lethality rate to Plutella xylostella; for mortality at 0.156 µg/mL: 0.156 mg/L, read-out: Mortality (%, 3 days after administration) 0.156 mg/L; for mortality at 0.156 µg/mL / mortality at 0.313 µg/mL / mortality at 0.625 µg/mL / mortality at 1.25 µg/mL: parallel comparative test; for mortality at 0.313 µg/mL: 0.313 mg/L, read-out: Mortality (%, 3 days after administration) 0.313 mg/L; for mortality at 0.625 µg/mL: 0.625 mg/L, read-out: Mortality (%, 3 days after administration) 0.625 mg/L; for mortality at 1.25 µg/mL: 1.25 mg/L, read-out: Mortality (%, 3 days after administration) 1.25 mg/L; for pest or weed control at 0.156 µg/mL: dose 0.156 mg/L
Procedure: as §1, §2
as §3, with “Cabbage” for “Corn”, “made” for “cut”, “into leaf discs with a diameter of” for “into”, “by using a hole puncher;” for “long segments;”, “disc” for “segment”, “3rd” for “3nd”

Compound: Cc1cc(C2=NOC(c3cc(Cl)cc(Cl)c3)(C(F)(F)F)C2)ccc1C(=O)N(CC(=O)NCC(F)(F)F)C(=O)C1CC1 (stereo not shown) [Compound 1]
- pest or weed control at 0.05 µg/mL [1]: > 90%
- pest or weed control at 5 µg/mL [2]: ≥ 90%
- mortality at 0.25 µg/mL [3]: 73.3%
- mortality at 0.5 µg/mL [3]: 83.3%
- mortality at 1 µg/mL [3]: 100%
- mortality at 5 µg/mL [3]: 100%
- pest or weed control at 1 µg/mL [3]: > 90%
- pest or weed control at 0.313 µg/mL [4]: > 90%

Compound: Cc1cc(C2=NOC(c3cc(Cl)c(F)c(Cl)c3)(C(F)(F)F)C2)ccc1C(=O)N(CC(=O)NCC(F)(F)F)C(=O)C1CC1 (stereo not shown) [Compound 2]
- pest or weed control at 0.05 µg/mL [1]: > 90%
- pest or weed control at 5 µg/mL [2]: ≥ 90%
- pest or weed control at 1 µg/mL [3]: > 90%
- pest or weed control at 0.313 µg/mL [4]: > 90%

Compound: COCC(=O)N(CC(=O)NCC(F)(F)F)C(=O)c1ccc(C2=NOC(c3cc(Cl)cc(Cl)c3)(C(F)(F)F)C2)cc1C (stereo not shown) [Compound 19]
- pest or weed control at 0.05 µg/mL [1]: > 90%
- pest or weed control at 5 µg/mL [2]: ≥ 90%
- mortality at 0.25 µg/mL [3]: 86.7%
- mortality at 0.5 µg/mL [3]: 100%
- mortality at 1 µg/mL [3]: 100%
- mortality at 5 µg/mL [3]: 100%
- pest or weed control at 0.5 µg/mL [3]: > 90%
- pest or weed control at 1 µg/mL [3]: > 90%
- mortality at 0.156 µg/mL [4]: 100%
- mortality at 0.313 µg/mL [4]: 100%
- mortality at 0.625 µg/mL [4]: 100%
- mortality at 1.25 µg/mL [4]: 100%
- pest or weed control at 0.156 µg/mL [4]: > 90%
- pest or weed control at 0.313 µg/mL [4]: > 90%

Compound: CCOCC(=O)N(CC(=O)NCC(F)(F)F)C(=O)c1ccc(C2=NOC(c3cc(Cl)cc(Cl)c3)(C(F)(F)F)C2)cc1C (stereo not shown) [Compound 21]
- pest or weed control at 0.05 µg/mL [1]: > 90%
- pest or weed control at 5 µg/mL [2]: ≥ 90%
- pest or weed control at 0.5 µg/mL [3]: > 90%
- pest or weed control at 1 µg/mL [3]: > 90%
- pest or weed control at 0.156 µg/mL [4]: > 90%
- pest or weed control at 0.313 µg/mL [4]: > 90%

Compound: CCOCC(=O)N(CC(=O)NCC(F)(F)F)C(=O)c1ccc(C2=NOC(c3cc(Cl)c(F)c(Cl)c3)(C(F)(F)F)C2)cc1C (stereo not shown) [Compound 22]
- pest or weed control at 0.05 µg/mL [1]: > 90%
- pest or weed control at 5 µg/mL [2]: ≥ 90%
- pest or weed control at 1 µg/mL [3]: > 90%
- pest or weed control at 0.156 µg/mL [4]: > 90%
- pest or weed control at 0.313 µg/mL [4]: > 90%

Compound: CCCCOCC(=O)N(CC(=O)NCC(F)(F)F)C(=O)c1ccc(C2=NOC(c3cc(Cl)cc(Cl)c3)(C(F)(F)F)C2)cc1C (stereo not shown) [Compound 27]
- pest or weed control at 0.05 µg/mL [1]: > 90%
- pest or weed control at 5 µg/mL [2]: ≥ 90%
- pest or weed control at 0.5 µg/mL [3]: > 90%
- pest or weed control at 1 µg/mL [3]: > 90%
- pest or weed control at 0.156 µg/mL [4]: > 90%
- pest or weed control at 0.313 µg/mL [4]: > 90%

Compound: COCCC(=O)N(CC(=O)NCC(F)(F)F)C(=O)c1ccc(C2=NOC(c3cc(Cl)cc(Cl)c3)(C(F)(F)F)C2)cc1C (stereo not shown) [Compound 31]
- pest or weed control at 0.05 µg/mL [1]: > 90%
- pest or weed control at 5 µg/mL [2]: ≥ 90%
- mortality at 0.25 µg/mL [3]: 80%
- mortality at 0.5 µg/mL [3]: 96.7%
- mortality at 1 µg/mL [3]: 100%
- mortality at 5 µg/mL [3]: 100%
- pest or weed control at 0.5 µg/mL [3]: > 90%
- pest or weed control at 1 µg/mL [3]: > 90%
- mortality at 0.156 µg/mL [4]: 100%
- mortality at 0.313 µg/mL [4]: 100%
- mortality at 0.625 µg/mL [4]: 100%
- mortality at 1.25 µg/mL [4]: 100%
- pest or weed control at 0.156 µg/mL [4]: > 90%
- pest or weed control at 0.313 µg/mL [4]: > 90%

Compound: CCOCCC(=O)N(CC(=O)NCC(F)(F)F)C(=O)c1ccc(C2=NOC(c3cc(Cl)cc(Cl)c3)(C(F)(F)F)C2)cc1C (stereo not shown) [Compound 33]
- pest or weed control at 0.05 µg/mL [1]: > 90%
- pest or weed control at 5 µg/mL [2]: ≥ 90%
- pest or weed control at 0.5 µg/mL [3]: > 90%
- pest or weed control at 1 µg/mL [3]: > 90%
- pest or weed control at 0.156 µg/mL [4]: > 90%
- pest or weed control at 0.313 µg/mL [4]: > 90%

Compound: CCOCCC(=O)N(CC(=O)NCC(F)(F)F)C(=O)c1ccc(C2=NOC(c3cc(Cl)c(F)c(Cl)c3)(C(F)(F)F)C2)cc1C (stereo not shown) [Compound 34]
- pest or weed control at 0.05 µg/mL [1]: > 90%
- pest or weed control at 5 µg/mL [2]: ≥ 90%
- pest or weed control at 1 µg/mL [3]: > 90%
- pest or weed control at 0.156 µg/mL [4]: > 90%
- pest or weed control at 0.313 µg/mL [4]: > 90%

Compound: COC(=O)N(CC(=O)NCC(F)(F)F)C(=O)c1ccc(C2=NOC(c3cc(Cl)cc(Cl)c3)(C(F)(F)F)C2)cc1C (stereo not shown) [KC1, reference compound]
- pest or weed control at 5 µg/mL [2]: 0%
- mortality at 0.25 µg/mL [3]: 0%
- mortality at 0.5 µg/mL [3]: 0%
- mortality at 1 µg/mL [3]: 0%
- mortality at 5 µg/mL [3]: 10%
- mortality at 0.156 µg/mL [4]: 20%
- mortality at 0.313 µg/mL [4]: 36.7%
- mortality at 0.625 µg/mL [4]: 70%
- mortality at 1.25 µg/mL [4]: 100%

Compound: CC(=O)N(CC(=O)NCC(F)(F)F)C(=O)c1ccc(C2=NOC(c3cc(Cl)cc(Cl)c3)(C(F)(F)F)C2)cc1C (stereo not shown) [KC2, reference compound]
- mortality at 0.25 µg/mL [3]: 0%
- mortality at 0.5 µg/mL [3]: 53.3%
- mortality at 1 µg/mL [3]: 100%
- mortality at 5 µg/mL [3]: 100%

Compound: CCC(=O)N(CC(=O)NCC(F)(F)F)C(=O)c1ccc(C2=NOC(c3cc(Cl)cc(Cl)c3)(C(F)(F)F)C2)cc1C (stereo not shown) [KC3, reference compound]
- mortality at 0.25 µg/mL [3]: 0%
- mortality at 0.5 µg/mL [3]: 30%
- mortality at 1 µg/mL [3]: 100%
- mortality at 5 µg/mL [3]: 100%
